Assay results as given in patent US12660819B2, “Herbicidal derivatives” (SYNGENTA CROP PROTECTION AG, priority 2020, dated 2026).

Columns and labels:
Assay type in all cases: in vivo
Zea mays (ZEAMX) [1] = experiment: Pre-emergence Test (glasshouse, percentage damage to the plant); conditions: 1000 g/ha unless otherwise stated, five-point scale
Setaria faberi (SETFA) [2] = experiment: Post-emergence Test (glasshouse, percentage damage to the plant); conditions: post-emergence spray, 1000 g/ha unless otherwise stated, evaluated after 13 days
Description: (§1) Seeds of a variety of test species are sown in standard soil in pots (Amaranthus retoflexus (AMARE), Solanum nigrum (SOLNI), Setaria faberi (SETFA), Lolium perenne (LOLPE), Echinochloa crus-galli (ECHCG), Ipomoea hederacea (IPOHE), Abutilon theophrasti (ABUTH), Zea mays (ZEAMX), Amaranthus palmeri (AMAPA). After 8 days cultivation under controlled conditions in a glasshouse (at 24° C./16° C., day/night; 14 hours light; 65% humidity), the plants are sprayed with an aqueous spray solution derived from the formulation of the technical active ingredient in acetone/water (50:50) solution containing 0.5% Tween 20 (polyoxyethelyene sorbitan monolaurate, CAS RN 9005-64-5). Compounds are applied at 1000 g/ha unless otherwise stated. The test plants are then grown in a glasshouse under controlled conditions in a glasshouse (at 24° C./16° C., day/night; 14 hours light; 65% humidity) and watered twice daily. After 13 days the test is evaluated for the percentage damage caused to the plant. The biological activities are shown in the following table on a five-point scale (5=81-100%; 4=61-80%; 3=41-60%; 2=21-40%; 1=0-20%).

[3] = system: Amaranthus retoflexus (AMARE); experiment: as above; conditions: post-emergence spray, 1000 g/ha unless otherwise stated, evaluated after 13 days
Description: as §1

Zea mays (ZEAMX) [4] = experiment: as above; conditions: post-emergence spray, 1000 g/ha unless otherwise stated, evaluated after 13 days
Description: as §1

[5] = system: Ipomoea hederacea (IPOHE); experiment: as above; conditions: post-emergence spray, 1000 g/ha unless otherwise stated, evaluated after 13 days
Description: as §1

[6] = system: Echinochloa crus-galli (ECHCG); experiment: Pre-emergence Test (glasshouse, percentage damage to the plant); conditions: 1000 g/ha unless otherwise stated, five-point scale
[7] = system: Ipomoea hederacea (IPOHE); experiment: as above; conditions: 1000 g/ha unless otherwise stated, five-point scale
[8] = system: Abutilon theophrasti (ABUTH); experiment: as above; conditions: 1000 g/ha unless otherwise stated, five-point scale
[9] = system: Amaranthus retoflexus (AMARE); experiment: as above; conditions: 1000 g/ha unless otherwise stated, five-point scale
Setaria faberi (SETFA) [10] = experiment: as above; conditions: 1000 g/ha unless otherwise stated, five-point scale

Structure (SMILES)	percentage damage to the plant, ZEAMX (Zea mays (ZEAMX) [1])	Post-emergence Test SETFA, percentage damage to the plant (five-point scale) (Setaria faberi (SETFA) [2])	Post-emergence Test AMARE, percentage damage to the plant (five-point scale) [3]	Post-emergence Test ZEAMX, percentage damage to the plant (five-point scale) (Zea mays (ZEAMX) [4])	Post-emergence Test IPOHE, percentage damage to the plant (five-point scale) [5]	percentage damage to the plant, ECHCG [6]	percentage damage to the plant, IPOHE [7]	percentage damage to the plant, ABUTH [8]	percentage damage to the plant, AMARE [9]	percentage damage to the plant, SETFA (Setaria faberi (SETFA) [10])
CCn1c(C)c(-c2ccc(Cl)cc2OC)c(=O)c(C(=O)O)c1-c1ccc(Cl)cc1 [Compound 184, 5-(4-chloro-2-methoxy-phenyl)-2-(4-chlorophenyl)-1-ethyl-6-methyl-4-oxo-pyridine-3-carboxylic acid]	0	5 (5=81-100%)	4 (4=61-80%)	3 (3=41-60%)	3 (3=41-60%)	1 (1=0-20%)	0	1 (1=0-20%)	1 (1=0-20%)	1 (1=0-20%)
CCn1c(C)c(-c2cc(C(F)(F)F)ccc2Cl)c(=O)c(C(=O)O)c1-c1ccc(Cl)cc1 [Compound 183, 2-(4-chlorophenyl)-5-[2-chloro-5-(trifluoromethyl)phenyl]-1-ethyl-6-methyl-4-oxo-pyridine-3-carboxylic acid]	0	2 (2=21-40%)	3 (3=41-60%)	3 (3=41-60%)	3 (3=41-60%)	0	0	0	0	0
CCn1c(C)c(-c2cc(C(F)(F)F)ccc2F)c(=O)c(C(=O)O)c1-c1ccc(Cl)cc1 [Compound 177, 2-(4-chlorophenyl)-1-ethyl-5-[2-fluoro-5-(trifluoromethyl)phenyl]-6-methyl-4-oxo-pyridine-3-carboxylic acid]	0	4 (4=61-80%)	4 (4=61-80%)	3 (3=41-60%)	3 (3=41-60%)	1 (1=0-20%)	3 (3=41-60%)	3 (3=41-60%)	1 (1=0-20%)	2 (2=21-40%)
CCn1c(C)c(-c2cccc(Cl)c2Cl)c(=O)c(C(=O)O)c1-c1ccc(Cl)cc1 [Compound 172, 2-(4-chlorophenyl)-5-(2,3-dichlorophenyl)-1-ethyl-6-methyl-4-oxo-pyridine-3-carboxylic acid]	0	4 (4=61-80%)	2 (2=21-40%)	2 (2=21-40%)	4 (4=61-80%)	3 (3=41-60%)	1 (1=0-20%)	1 (1=0-20%)	1 (1=0-20%)	3 (3=41-60%)
CCn1c(C)c(-c2ccc(Cl)cc2Cl)c(=O)c(C(=O)O)c1-c1ccc(Cl)cc1 [Compound 193, 2-(4-chlorophenyl)-5-(2,4-dichlorophenyl)-1-ethyl-6-methyl-4-oxo-pyridine-3-carboxylic acid]	1 (1=0-20%)	4 (4=61-80%)	5 (5=81-100%)	2 (2=21-40%)	3 (3=41-60%)	1 (1=0-20%)	0	2 (2=21-40%)	2 (2=21-40%)	2 (2=21-40%)
CCn1c(C)c(-c2cccc(C(F)(F)F)c2)c(=O)c(C(=O)O)c1-c1ccnc(Cl)c1 [Compound 145, 2-(2-chloro-4-pyridyl)-1-ethyl-6-methyl-4-oxo-5-[3-(trifluoromethyl)phenyl] pyridine-3-carboxylic acid]	0	3 (3=41-60%)	1 (1=0-20%)	1 (1=0-20%)	2 (2=21-40%)	2 (2=21-40%)	0	1 (1=0-20%)	1 (1=0-20%)	3 (3=41-60%)
CCn1c(-c2ccc(Cl)c(Cl)c2)c(C(=O)OC)c(=O)c(-c2ccc(Cl)cc2)c1C(F)(F)F [Compound 169, methyl 5-(4-chlorophenyl)-2-(3,4-dichlorophenyl)-1-ethyl-4-oxo-6-(trifluoromethyl) pyridine-3-carboxylate]	0	0	1 (1=0-20%)	1 (1=0-20%)	0	0	0	0	0	0
CCn1c(C)c(-c2ccc(Cl)c(C#N)c2)c(=O)c(C(=O)O)c1-c1ccc(Cl)cc1 [Compound 196, 5-(4-chloro-3-cyano-phenyl)-2-(4-chlorophenyl)-1-ethyl-6-methyl-4-oxo-pyridine-3-carboxylic acid]	0	3 (3=41-60%)	3 (3=41-60%)	2 (2=21-40%)	3 (3=41-60%)	2 (2=21-40%)	1 (1=0-20%)	0	1 (1=0-20%)	1 (1=0-20%)
CCn1c(C)c(-c2ccc(Cl)c(Cl)c2)c(=O)c(C(=O)O)c1-c1ccc(Cl)cc1 [Compound 195, 2-(4-chlorophenyl)-5-(3,4-dichlorophenyl)-1-ethyl-6-methyl-4-oxo-pyridine-3-carboxylic acid]	0	2 (2=21-40%)	4 (4=61-80%)	2 (2=21-40%)	3 (3=41-60%)	2 (2=21-40%)	0	0	2 (2=21-40%)	1 (1=0-20%)
CCn1c(C)c(-c2ccc(C(F)(F)F)cc2)c(=O)c(C(=O)O)c1-c1ccnc(Cl)c1 [Compound 140, 2-(2-chloro-4-pyridyl)-1-ethyl-6-methyl-4-oxo-5-[4-(trifluoromethyl)phenyl] pyridine-3-carboxylic acid]	0	4 (4=61-80%)	1 (1=0-20%)	1 (1=0-20%)	3 (3=41-60%)	2 (2=21-40%)	1 (1=0-20%)	1 (1=0-20%)	1 (1=0-20%)	2 (2=21-40%)
CCn1c(C)c(-c2ccc(C(F)(F)F)c(Cl)c2)c(=O)c(C(=O)O)c1-c1ccc(Cl)cc1 [Compound 171, 2-(4-chlorophenyl)-5-[3-chloro-4-(trifluoromethyl)phenyl]-1-ethyl-6-methyl-4-oxo-pyridine-3-carboxylic acid]	0	3 (3=41-60%)	3 (3=41-60%)	2 (2=21-40%)	4 (4=61-80%)	1 (1=0-20%)	1 (1=0-20%)	0	0	0
